In patent US8835629B2, “Anti-cancer agents” (The Walter and Eliza Hall Institute of Medical Research, priority 2010, dated 2014):
pIC50: −log10 of the molar value. “Also recorded” adds a separate entry of the source.

How the values were obtained:
[1] = system: H1437 (non-small cell lung cancer cell line) tumours; experiment: Tumor xenograft study with H1437; assay type: in vivo, Balb/c nu/nu mice
Experimental: FIG. 10: H1437 tumor growth in nude mice. Tumor diameters were measured with external callipers every three days and tumor volume calculated with the formula: π/6×(L×W2).
Mice: Balb/c nu/nu male; 8 controls and 8 treated; 5 weeks old.
Cells inoculated: H1437 (non-small cell lung cancer cell line) at 2×10^6 cells/tumour; two tumours per mouse.
(§1) Dose: Compound 2 at 20 mg/kg=100 μl of 4 mg/ml in water for injection per 20 g mouse. Control mice were injected with 100 μl water for injection.
Treatment and monitoring: Treatment commenced at Day 5 after inoculation. Mice were injected SC in abdomen three times per week, on alternating sides. Mice were weighed; tumour diameters measured in two dimensions and the health of the mice was monitored. Injections correspond to data points on the plots, with an additional treatment on Day 14 when no measurements were made.

[2] = system: LIM 1215; experiment: MTT cell proliferation assay, LIM 1215; assay type: cell-based; conditions: LIM1215, 72 h; LIM 1215 human colorectal carcinoma; MTT after 3 days of incubation; read-out: IC50, inhibition of proliferation
Experimental: (§2) Compound 2 was tested on a series of cell lines to determine its activity and selectivity (Table 2). Cell proliferation was measured using the MTT assay (for protocol see Example 2.6) after 3 days of incubation with the inhibitor.
(§3) • Cells plated at […] in 100 μl medium+5% FCS (+Adds^1): • Cells incubated overnight: • Titrate inhibitors in a fresh plate in 150 μl medium • Transfer 100 μl titrated compounds to matching wells of the cell plate. • Incubate a further 4 days: • Add 10 μl MTS^2 or MTT^3 for 1.5 to 2 hours and read on Multiscanner (wavelengths 492/690) ^1 Additives for culture of LIM cell lines: 10 μM thioglycerol, 0.025 U/ml insulin, 1 μg/ml hydrocortisone. ^2 3-(4,5-dimethylthiazol-2-yl)-5-(3-carboxymethoxyphenyl)-2-(4-sulfophenyl)-2H-tetrazolium. ^3 3-(4,5-Dimethylthiazol-2-yl)-2,5-diphenyltetrazolium bromide
(§4) Cells are trypsinized and washed ×2 in medium+5% FCS and plate out at 10^4 cells per well in 100 μl.
(§5) Incubate plates o/n 37° C.+5%-10% CO2 incubator.
(§6) Inhibitors are dissolved in DMSO to make 10 mM stocks and titrated in a 96 well plate in duplicate to use as the stock for the test plate. […]
(§7) Read OD of plates on Thermo Multiskan Ex, at 560/690 nm.

[3] = system: MDA-MB-231; experiment: Antimitotic effects (G2/M cell cycle block, DNA staining, ModFit) on MDA-MB-231; assay type: cell-based, human
Excerpt: (§8) For the initial studies two colon carcinoma cell lines (LIM1215 and SW480) and two breast cancer cell lines (MDA-MB-231 and MCF-7) were used. Taxol was used as comparator in these experiments (Table 1).

[4] = system: LIM 2537; experiment: MTT cell proliferation assay, LIM 2537; assay type: cell-based; conditions: 72 h; LIM 2537 human colorectal carcinoma; MTT after 3 days of incubation; read-out: IC50, inhibition of proliferation
Experimental: as §2, §3, §4, §5, §6, §7

[5] = system: U87MG(Δ2-7) (brain cancer cell line) tumours; experiment: Tumor xenograft study with U87MG(Δ2-7); assay type: in vivo, Balb/c nu/nu mice
Experimental: FIG. 8: U87MG(Δ2-7) tumor growth in nude mice. Tumor diameters were measured with external callipers every three days and tumor volume calculated with the formula: π/6×(L×W2).
Mice: Balb/c nu/nu male; 8 controls and 8 treated.
Cells inoculated: U87MG(Δ2-7) at 2.13×10^6 cells/tumour; two tumours per mouse.
as §1
Treatment and monitoring: Treatment commenced at Day 5 after inoculation. Mice were injected SC in abdomen three times per week (Mon, Wed, Fri), on alternating sides. Mice were weighed, tumour diameters measured in two dimensions and the health of the mice was monitored.
After mice were sacrificed: the tumours were dissected and weighed; spleens and livers were also weighed.

[6] = system: LIM 2537 (colon carcinoma cell line) tumors; experiment: Tumor xenograft study with LIM 2537 cells; assay type: in vivo, BALB/c nude mice; conditions: 15 mg/kg SC
Experimental: FIG. 7: LIM2537 tumor growth in nude mice. Tumor diameters were measured with external calipers every three days and tumor volume calculated with the formula: π/6×(L×W^2).
The mice were inoculated with 3×10^6 cells per tumor in 100 μl PBS, one tumor on each flank subcutaneously (SC). Treatments were started on the third day after inoculation with either vehicle control (VC) or 100 μl of drug at 3 mg/ml in aqueous solution giving a dose of 15 mg/kg. Mice were injected SC in the abdomen, three times per week for the duration of the experiment. The mice were monitored for body weight, tumor volume and appearance, and for any adverse reactions to the drug. The experiment was terminated after 33 days and the control group euthanized, as the tumor burden in that group had reached the maximum allowed. The remaining mice were then left without treatment for a further 9 days to monitor resumption of tumor growth.

[7] = system: MCF-7; experiment: Antimitotic effects (G2/M cell cycle block, DNA staining, ModFit) on MCF-7; assay type: cell-based, human
Excerpt: as §8

[8] = system: MDA-MB-231; experiment: MTT cell proliferation assay, MDA-MB-231; assay type: cell-based; conditions: 72 h; MDA-MB-231 human breast carcinoma; MTT after 3 days of incubation; read-out: IC50, inhibition of proliferation
Experimental: as §2, §3, §4, §5, §6, §7

[9] = system: SW480; experiment: Antimitotic effects (G2/M cell cycle block, DNA staining, ModFit) on SW480; assay type: cell-based, human
Excerpt: as §8

[10] = Homo sapiens, inhibitors added to cells in log-growth for 24 hrs, read-out: IC50 for progression through the cell cycle
[11] = 20 mg/kg SC three times per week, post mortem

Structure (SMILES): COc1ccc(CNc2nc(NCc3ccc(CN)cc3)nc(NN3CC(=O)NC3=O)n2)cc1 (single isomer, unassigned) [Compound 2, 1-[4-(4-aminomethyl-benzylamino)-6-(4-methoxybenzylamino)-{1,3,5}-triazin-2-yl-amino]-imidazolidine-2,4-dione]
- Tumour growth (tumour volume) ([1]; 20 mg/kg SC three times per week from day 5, terminated at 26 days): Clear difference; also recorded: significant difference in volume between control and treated tumours
- Size of dissected tumours ([1]; 20 mg/kg three times per week, after sacrifice): clear difference in size
- pIC50 [2]: 7.05
- % of Taxol (proportion of cells in G2M test/proportion of cells in G2M Taxol) ([3]; 24 hrs, standard 1 μM Taxol): 103%
- pIC50 [3, 10]: 8.05
- pIC50 [4]: 7.15
- Tumour growth (tumour volume) ([5]; 20 mg/kg SC three times per week from day 5, terminated at 14 days): significant difference in volume between control and treated tumours; also recorded: reduced the growth of the tumours
- Liver or spleen weights vs vehicle control [5, 11]: no significant difference
- Tumor weight [5, 11]: greatly reduced
- Tumor growth (tumor volume) ([6]; 3 injections per week from day 3, 33 days): significantly reduced the rate of growth of the tumors; also recorded: successful in slowing the growth of LIM 2537 cells
- Mouse body weights ([6]; three times per week): not affected
- Adverse reaction to the drug ([6]; three times per week, aqueous formulation): no long term adverse reaction
- % of Taxol (proportion of cells in G2M test/proportion of cells in G2M Taxol) ([7]; 24 hrs, standard 1 μM Taxol): 102%
- pIC50 ([7]; Homo sapiens, MCF7, inhibitors added to cells in log-growth for 24 hrs, read-out: IC50 for progression through the cell cycle): 8.05
- pIC50 [8]: 8.00
- % of Taxol (proportion of cells in G2M test/proportion of cells in G2M Taxol) ([9]; 24 hrs, standard 1 μM Taxol): 113%
- pIC50 [9, 10]: 6.60
